Values of other authors, collected in US20110236503A1, “Topical Skincare Composition” (COSMALABS INTERNATIONAL, LLC, priority 2010, published 2011).

Conditions: topical composition having 5% benzoyl peroxide vs erythromycin and clindamycin formulations

O=C(OOC(=O)c1ccccc1)c1ccccc1 [benzoyl peroxide, Benzoyl peroxide]
effectiveness for acne compared with other topical antimicrobials: at least as effective for acne as erythromycin and clindamycin formulations
